# Results as given in US9090629B2, “Cytotoxic agents comprising new ansamitocin derivatives” (ImmunoGen, Inc., priority 2010, dated 2015).
# Where two headings read alike, the source gives them in different places.
# What was measured:
# COLO 205-MDR cell line = experiment: in-vitro activity of ansamitocin derivatives; type: cell-based, human; conditions: 96 hour exposure; read-out: IC50 against COLO 205-MDR cell line
# Description: (§1) All reagents were purchased from the Aldrich Chemical Co., New Jersey, or other commercial sources. Maytansinol (11) was prepared as described previously (U.S. Pat. No. 6,333,410). Nuclear Magnetic Resonance (^1H NMR) spectra were acquired on a Bruker 400 MHz instrument and mass spectra were acquired on a Bruker Daltonics Esquire 3000 instrument using electrospray ionization. In vitro cytotoxicity assays are performed as previously described (see U.S. Pat. No. 7,276,497 and W. C. Widdison et al., J. Med. Chem., 2006, 49, 4392-4408).
# COLO 205 cell line = experiment: in-vitro activity of ansamitocin derivatives; type: cell-based, human; conditions: 96 hour exposure; read-out: IC50 against COLO 205 cell line
# Description: as §1
# (§2) The KB (ATCC CCl-17) cell line is of human epithelial origin. The SK-BR-3 (ATCC HTB-30) cell line was established from a human breast adenocarcinoma. The human colon tumor cell lines COLO 205 (ATCC CCL-222) and HT-29 (ATCC HTB 38), the human melanoma cell line A-375 (ATCC CRL 1619), the human Burkitts lymphoma cell line Ramos (ATCC CRL-1596) and the human myeloid leukemia cell line HL-60 (ATCC CCL-240) were all obtained from ATCC, Maryland. Cell lines were grown in Dulbecco's modified Eagles Medium (DMEM, Biowhittaker, Walkersville, Md.) with L-glutamine supplemented with 10% fetal bovine serum (Hyclone, Logan, Utah) and 50 μg/mL gentamycin sulfate (Life Technologies, Rockville, Md.). Cells were maintained at 36-37.5° C. in a humidified atmosphere that contained 6% CO2.
# KB cell line = experiment: in-vitro activity of ansamitocin derivatives; type: cell-based, human
# Text: The in vitro cytotoxicity of ansamitocin derivatives of the present invention can be measured by methods previously disclosed (U.S. Pat. No. 7,276,497 and Widdison et al., J. Med. Chem., 49; 4392, 2006, both expressly incorporated herein by reference). For example, cell lines such as the human breast carcinoma line SK-Br-3, or the human epidermoid carcinoma cell line KB, can be used for the assessment of cytotoxicity of these new ansamitocin derivatives. Cells to be evaluated are exposed to the compounds for 72 hours and the surviving fractions of cells measured in direct assays by known methods. IC50 values are calculated from the results of the assays.
# as §1
# The KB (ATCC CCl-17) cell line is of human epithelial origin. The SK-BR-3 (ATCC HTB-30) cell line was established from a human breast adenocarcinoma. […]
# SK-Br-3 cells = experiment: clonogenic in vitro cytotoxicity assay; type: cell-based, human; conditions: for IC50: read-out: IC50 towards SK-Br-3 cells
# Description: as §2
# (§3) The cytotoxicity study was performed using a clonogenic assay. The test cell lines (KB and SK-Br-3) were plated into 6-well culture dishes at a constant number of 1000 cells per well. Cells were incubated with varying concentrations (0 to 3 nM) of the various ansamitocins or maytansine for 72 hours. The medium was then aspirated from the plates and replaced with fresh medium. Cultures were allowed to grow, and form colonies, for a total of 7-10 days after plating. The cultures were then fixed and stained with 0.2% crystal violet in 10% formalin/PBS and colonies were counted. Plating efficiency of non-treated cells (medium alone) was determined by dividing the number of colonies counted by the number of cells plated. Surviving fraction of cells exposed to the drugs was determined by dividing the number of colonies in wells that were exposed to the drug by the number of colonies in the control wells.
# KB cells [1] = experiment: clonogenic in vitro cytotoxicity assay; type: cell-based, human; conditions: 72 hours incubation
# Description: as §2, §3
# KB cells [2] = conditions: literature report, cited from earlier work
# [3] = system: human nasopharyngeal carcinoma cells; conditions: literature report; cited from earlier work
# L1210 cells = L1210 cells treated in vivo; untreated control 3.2 to 5.8%; cited from earlier work
# [4] = system: L1210 mouse leukemia system; conditions: literature report; cited from earlier work
# [5] = system: human acute lymphoblastic leukemia line CEM; conditions: literature report; cited from earlier work
structure (smiles),measurement,setting,value
COc1cc2cc(c1Cl)N(C)C(=O)C[C@H](OC(=O)CCCCC(=O)OCC[Si](C)(C)C)[C@]1(C)O[C@H]1[C@H](C)[C@@H]1C[C@@](O)(NC(=O)O1)[C@H](OC)/C=C/C=C(\C)C2 [14a],IC50,COLO 205-MDR cell line,4.8 nM
same,IC50,COLO 205 cell line,0.4 nM
"COc1cc2cc(c1Cl)N(C)C(=O)CC(OC(=O)CCCCC(=O)O)C1(C)OC1C(C)C1CC(O)(NC(=O)O1)C(OC)C=CC=C(C)C2 (stereo not drawn) [14b, Hexanedioic Acid Ester of Maytansinol]",fold reduction in activity compared to the TMS-protected precursor 14a,KB cell line; KB cell line,15 fold
CCCCC(=O)O[C@H]1CC(=O)N(C)c2cc(cc(OC)c2Cl)C/C(C)=C/C=C/[C@@H](OC)[C@@]2(O)C[C@H](OC(=O)N2)[C@@H](C)[C@@H]2O[C@@]12C [ansamitocin P4′],fold more potent than maytansine towards SK-Br-3 cells,SK-Br-3 cells; 72 hours incubation,17 fold
same,IC50,SK-Br-3 cells; 72 hours incubation,0.002 nM
CCC(=O)O[C@H]1CC(=O)N(C)c2cc(cc(OC)c2Cl)C/C(C)=C/C=C/[C@@H](OC)[C@@]2(O)C[C@H](OC(=O)N2)[C@@H](C)[C@@H]2O[C@@]12C [ansamitocin bearing a C3 propionyl ester],fold more potent than maytansine towards KB cells,KB cells [1],1.3 fold
same,fold less potent than maytansine (Kupchan et al.),KB cells [2]; KB cells,about 34.4 fold
"COc1cc2cc(c1Cl)N(C)C(=O)C[C@H](OC(=O)CCCCCSSC)[C@]1(C)O[C@H]1[C@H](C)[C@@H]1C[C@@](O)(NC(=O)O1)[C@H](OC)/C=C/C=C(\C)C2 [compound 54, 6-(methyldithio)hexanoic acid ester of maytansinol]",IC50,COLO 205 cell line,0.31 nM
"COc1cc2cc(c1Cl)N(C)C(=O)C[C@H](OC(=O)c1ccc(CSSC)cc1)[C@]1(C)O[C@H]1[C@H](C)[C@@H]1C[C@@](O)(NC(=O)O1)[C@H](OC)/C=C/C=C(\C)C2 [compound 59, 4-((methyldisulfanyl)methyl)benzoic acid ester of maytansinol]",IC50,COLO 205 cell line,0.53 nM
"COc1cc2cc(c1Cl)N(C)C(=O)C[C@H](OC(=O)CCCN(C)C)[C@]1(C)O[C@H]1[C@H](C)[C@@H]1C[C@@](O)(NC(=O)O1)[C@H](OC)/C=C/C=C(\C)C2 [compound 66, Dimethylamino Butyric Acid Ester of Maytansinol]",IC50,COLO 205-MDR cell line,> 20 nM
same,IC50,"KB cell line; 96 hour exposure, read-out: IC50 against the KB cell line",11 to 12 nM
same,IC50,COLO 205 cell line,11 to 12 nM
"COc1cc2cc(c1Cl)N(C)C(=O)C[C@H](OC(=O)[C@H](C)N(C)C(C)=O)[C@]1(C)O[C@H]1[C@H](C)[C@@H]1C[C@@](O)(NC(=O)O1)[C@H](OC)/C=C/C=C(\C)C2 [maytansine, N-acetyl-N-methyl-L-alanyl ester of maytansinol]",inhibition of in vitro growth of human nasopharyngeal carcinoma cells,[3],active inhibitor
same,cells accumulating in mitosis,L1210 cells,67%
same,inhibitory activity in vivo,[4],significant inhibitory activity
same,IC50,"SK-Br-3 cells; Homo sapiens, SK-BR-3, 72 hours incubation",0.034 nM
same,"inhibitory concentration, CEM line",[5],≥ 10^−7 mg/ml
same,IC50 towards cancer cells (Kupchan et al.),KB cells [2],0.0000061 micrograms/mL
